Experimental data from patent publication US9683018B2, “Disulfide cyclic polypeptides for the treatment of heart failure” (priority 2013, dated 2017).
Bridge positions count the residues as written; N and C are the ends. Square brackets hold non-standard residues; d marks the D form. Peptide text beside a SMILES is read from it. pGlu = O=C1CC[C@@H](C(=O)O)N1; d(hCys) = N[C@H](CCS)C(=O)O; dNle = CCCC[C@@H](N)C(=O)O; hCys = N[C@@H](CCS)C(=O)O; Nle = CCCC[C@H](N)C(=O)O; Aib = CC(C)(N)C(=O)O; Inp = O=C(O)C1CCNCC1

Key:
hAPJ = molecular target: T1, hAPJ (Homo sapiens, UniProt P35414); experiment: hAPJ Calcium Flux Assay; format: cell-based; conditions: Chem-5 APJ stable cells, FLIPR calcium flux; read-out: hAPJ Ca2+ Flux EC50
T1 sequence (P35414 1-380): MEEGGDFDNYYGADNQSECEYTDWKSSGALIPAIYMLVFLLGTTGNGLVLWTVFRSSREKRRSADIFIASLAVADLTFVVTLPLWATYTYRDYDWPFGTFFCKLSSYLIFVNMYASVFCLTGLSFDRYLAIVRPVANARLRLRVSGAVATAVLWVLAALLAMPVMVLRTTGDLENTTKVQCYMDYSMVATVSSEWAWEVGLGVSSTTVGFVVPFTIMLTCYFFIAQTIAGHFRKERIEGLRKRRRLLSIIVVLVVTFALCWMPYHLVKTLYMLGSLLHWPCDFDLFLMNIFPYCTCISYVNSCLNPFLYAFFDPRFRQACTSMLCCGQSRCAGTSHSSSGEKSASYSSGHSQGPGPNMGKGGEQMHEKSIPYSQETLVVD
Description: Chem-5 APJ stable cells (Millipore # HTS068C) were plated in 384-well format with 10,000 cells/well in 25 ul growth media, then grown 24 hours in a 37° C. tissue culture incubator. One hour before the assay, 25 ul/well FLIPR Calcium 4 dye (Molecular Devices R8142) with 2.5 mM probenecid was added, and cells were incubated one hour in a 37° C. tissue culture incubator. Peptides were solubilized in HBSS, HEPES & 0.1% BSA buffer, and serially-diluted 10-fold, from 50 uM to 5 pM, in triplicate. FLIPR Tetra was used to add peptide to the cells with dye (1:5, for final peptide concentrations ranging from 10 uM to 1 pM). FLIPR dye inside the cells emitted fluorescence after binding to calcium, while fluorescence from outside the cells was masked. Fluorescence was measured using 470-495 excitation and 515-575 emission wavelengths on the FLIPR Tetra. Readings were done for 3 minutes total, beginning 10 seconds before the peptide addition. Maximum-minimum values were calculated and plotted for each peptide concentration, and GraphPad prism software was used to calculate EC50 values at the curve inflection points, for calcium flux stimulation by peptides.

in vitro = conditions: rat, plasma, Surrogate activity-based Plasma stability t½
Description: The calcium flux protocol described above was followed, with the following changes. The peptides were also incubated with 5% rat plasma (Bioreclamation # [sequence]-M, Na Heparin-treated). Readings were taken at time points t0 and t24 hrs, after incubation in a 37° C. tissue culture incubator. Peptide plasma half-life in minutes was estimated by calculating the following:
2) Calculate slope of value above and

SMILES | EC50 (hAPJ) [nM] | half-life (in vitro) [h]
CCCC[C@@H]1NC(=O)[C@@H]2CCCN2C(=O)[C@@H](NC(=O)[C@H](CCCCN)NC(=O)C(C)(C)NC(=O)[C@@H](C)NC(=O)[C@H](CC(C)C)NC(=O)[C@H](CCCNC(=N)N)NC(=O)[C@@H]2CCCN2C(=O)[C@H](CCCNC(=N)N)NC(=O)[C@@H]2CCC(=O)N2)CSSC[C@@H](C(=O)N[C@H](Cc2ccccc2)C(=O)O)NC1=O [Example 19, pE-R-P-R-L-a-Aib-K-C*-P-Nle-C*-f-OH] ([pGlu]RPRL[dA][Aib]KCP[Nle]C[dF]-OH; disulfide 9-12) | 72.3 | 36.4
CCCC[C@@H]1NC(=O)[C@@H]2CCCN2C(=O)[C@@H](NC(=O)[C@H](CCCCN)NC(=O)[C@@H](C)NC(=O)[C@H](CO)NC(=O)[C@H](CC(C)C)NC(=O)[C@H](CCCNC(=N)N)NC(=O)[C@@H]2CCCN2C(=O)[C@H](CCCNC(=N)N)NC(=O)[C@@H]2CCC(=O)N2)CSSC[C@@H](C(=O)N[C@H](Cc2ccccc2)C(=O)O)NC1=O [Example 16, pE-R-P-R-L-S-a-K-C*-P-Nle-C*-f-OH] ([pGlu]RPRLS[dA]KCP[Nle]C[dF]-OH; disulfide 9-12) | 33.2 | 5.38
CCCC[C@@H]1NC(=O)[C@@H]2CCCN2C(=O)CNC(=O)[C@H](CCCCN)NC(=O)[C@@H](NC(=O)[C@H](CO)NC(=O)[C@H](CC(C)C)NC(=O)[C@H](CCCNC(=N)N)NC(=O)[C@@H]2CCCN2C(=O)[C@H](CCCNC(=N)N)NC(=O)[C@@H]2CCC(=O)N2)CCSSCC[C@@H](C(=O)N[C@@H](Cc2ccccc2)C(=O)O)NC1=O [Example 13, pE-R-P-R-L-S-hC*-K-G-P-Nle-hC*-F-OH] ([pGlu]RPRLS[hCys]KGP[Nle][hCys]F-OH; disulfide 7-12) | 760 | 1.73
CCCC[C@@H]1NC(=O)[C@@H]2CCCN2C(=O)CNC(=O)[C@H](CCCCN)NC(=O)[C@@H](NC(=O)[C@H](CO)NC(=O)[C@H](CC(C)C)NC(=O)[C@H](CCCNC(=N)N)NC(=O)[C@@H]2CCCN2C(=O)[C@H](CCCNC(=N)N)NC(=O)[C@@H]2CCC(=O)N2)CSSC[C@H](C(=O)N[C@@H](Cc2ccccc2)C(=O)O)NC1=O [Example 11, pE-R-P-R-L-S-C*-K-G-P-Nle-c*-F-OH] ([pGlu]RPRLSCKGP[Nle][dC]F-OH; disulfide 7-12) | 113 | 2.28
CCCC[C@@H]1NC(=O)[C@@H]2CCCN2C(=O)CNC(=O)[C@H](CCCCN)NC(=O)[C@H](NC(=O)[C@H](CO)NC(=O)[C@H](CC(C)C)NC(=O)[C@H](CCCNC(=N)N)NC(=O)[C@@H]2CCCN2C(=O)[C@H](CCCNC(=N)N)NC(=O)[C@@H]2CCC(=O)N2)CCSSCC[C@H](C(=O)N[C@@H](Cc2ccccc2)C(=O)O)NC1=O [Example 7, pE-R-P-R-L-S-(D-hC)*-K-G-P-Nle-(D-hC)*-F-OH] ([pGlu]RPRLS[d(hCys)]KGP[Nle][d(hCys)]F-OH; disulfide 7-12) | 781 | 2.01
CCCC[C@@H]1NC(=O)[C@@H]2CCCN2C(=O)[C@@H](NC(=O)[C@H](CCCCN)NC(=O)[C@H](Cc2c[nH]cn2)NC(=O)[C@@H](CO)NC(=O)[C@H](CC(C)C)NC(=O)[C@H](CCCNC(=N)N)NC(=O)[C@@H]2CCCN2C(=O)[C@H](CCCNC(=N)N)NC(=O)[C@@H]2CCC(=O)N2)CSSC[C@@H](C(=O)N[C@H](Cc2ccccc2)C(=O)O)NC1=O [Example 21, pE-R-P-R-L-s-H-K-C*-P-Nle-C*-f-OH] ([pGlu]RPRL[dS]HKCP[Nle]C[dF]-OH; disulfide 9-12) | 9.7 | 8.88
CCCC[C@H]1NC(=O)[C@@H]2CCCN2C(=O)CNC(=O)[C@H](CCCCN)NC(=O)[C@H](Cc2c[nH]cn2)NC(=O)[C@H](CO)NC(=O)[C@@H](NC(=O)[C@H](CCCNC(=N)N)NC(=O)[C@@H]2CCCN2C(=O)[C@H](CCCNC(=N)N)NC(=O)[C@@H]2CCC(=O)N2)CCSSC[C@@H](C(=O)N[C@H](Cc2ccc(O)cc2)C(=O)O)NC1=O [Example 2, pE-R-P-R-hC*-S-H-K-G-P-(D-Nle)-C*-y-OH] ([pGlu]RPR[hCys]SHKGP[dNle]C[dY]-OH; disulfide 5-12) | 154 | 0.867
CCCC[C@@H]1NC(=O)[C@@H]2CCCN2C(=O)[C@@H](NC(=O)[C@H](CCCCN)NC(=O)[C@H](Cc2c[nH]cn2)NC(=O)[C@@H](C)NC(=O)[C@H](CC(C)C)NC(=O)[C@H](CCCNC(=N)N)NC(=O)[C@@H]2CCCN2C(=O)[C@H](CCCNC(=N)N)NC(=O)C2CCNCC2)CSSC[C@@H](C(=O)N[C@H](Cc2ccccc2)C(=O)O)NC1=O [Example 18, Isonipecotoyl-R-P-R-L-a-H-K-C*-P-Nle-C*-f-OH] (H-[Inp]RPRL[dA]HKCP[Nle]C[dF]-OH; disulfide 9-12) | 2.3 | 16.5
CCCC[C@@H]1NC(=O)[C@@H]2CCCN2C(=O)CNC(=O)[C@H](CCCCN)NC(=O)[C@H](NC(=O)[C@H](CO)NC(=O)[C@H](CC(C)C)NC(=O)[C@H](CCCNC(=N)N)NC(=O)[C@@H]2CCCN2C(=O)[C@H](CCCNC(=N)N)NC(=O)[C@@H]2CCC(=O)N2)CCSSCC[C@@H](C(=O)N[C@@H](Cc2ccccc2)C(=O)O)NC1=O [Example 9, pE-R-P-R-L-S-(D-hC)*-K-G-P-Nle-hC*-F-OH] ([pGlu]RPRLS[d(hCys)]KGP[Nle][hCys]F-OH; disulfide 7-12) | 1030 | 0.95
CCCC[C@@H]1NC(=O)[C@@H]2CCCN2C(=O)CNC(=O)[C@H](CCCCN)NC(=O)[C@@H](NC(=O)[C@H](CO)NC(=O)[C@H](CC(C)C)NC(=O)[C@H](CCCNC(=N)N)NC(=O)[C@@H]2CCCN2C(=O)[C@H](CCCNC(=N)N)NC(=O)[C@@H]2CCC(=O)N2)CSSCC[C@H](C(=O)N[C@@H](Cc2ccccc2)C(=O)O)NC1=O [Example 4, pE-R-P-R-L-S-C*-K-G-P-Nle-(D-hC)*-F-OH] ([pGlu]RPRLSCKGP[Nle][d(hCys)]F-OH; disulfide 7-12) | 406 | 0.403
CCCC[C@@H]1NC(=O)[C@@H]2CCCN2C(=O)CNC(=O)[C@H](CCCCN)NC(=O)[C@H](NC(=O)[C@H](CO)NC(=O)[C@H](CC(C)C)NC(=O)[C@H](CCCNC(=N)N)NC(=O)[C@@H]2CCCN2C(=O)[C@H](CCCNC(=N)N)NC(=O)[C@@H]2CCC(=O)N2)CCSSC[C@@H](C(=O)O)NC1=O [Example 10, pE-R-P-R-L-S-(D-hC)*-K-G-P-Nle-C*-OH] ([pGlu]RPRLS[d(hCys)]KGP[Nle]C-OH; disulfide 7-12) | 976 | 1.64
CCCC[C@@H]1NC(=O)[C@@H]2CCCN2C(=O)CNC(=O)[C@H](CCCCN)NC(=O)[C@H](NC(=O)[C@H](CO)NC(=O)[C@H](CC(C)C)NC(=O)[C@H](CCCNC(=N)N)NC(=O)[C@@H]2CCCN2C(=O)[C@H](CCCNC(=N)N)NC(=O)[C@@H]2CCC(=O)N2)CCSSC[C@@H](C(=O)N[C@@H](Cc2ccccc2)C(=O)O)NC1=O [Example 8, pE-R-P-R-L-S-(D-hC)*-K-G-P-Nle-C*-F-OH] ([pGlu]RPRLS[d(hCys)]KGP[Nle]CF-OH; disulfide 7-12) | 613 | 1.29
CCCC[C@@H]1NC(=O)[C@@H]2CCCN2C(=O)CNC(=O)[C@H](CCCCN)NC(=O)[C@H](NC(=O)[C@H](CO)NC(=O)[C@H](CC(C)C)NC(=O)[C@H](CCCNC(=N)N)NC(=O)[C@@H]2CCCN2C(=O)[C@H](CCCNC(=N)N)NC(=O)[C@@H]2CCC(=O)N2)CSSCC[C@H](C(=O)N[C@@H](Cc2ccccc2)C(=O)O)NC1=O [Example 5, pE-R-P-R-L-S-c*-K-G-P-Nle-(D-hC)*-F-OH] ([pGlu]RPRLS[dC]KGP[Nle][d(hCys)]F-OH; disulfide 7-12) | 981 | 23.9
CCCC[C@@H]1NC(=O)[C@@H]2CCCN2C(=O)[C@@H](NC(=O)[C@H](CCCCN)NC(=O)C(C)(C)NC(=O)[C@H](CO)NC(=O)[C@H](CC(C)C)NC(=O)[C@H](CCCNC(=N)N)NC(=O)[C@@H]2CCCN2C(=O)[C@H](CCCNC(=N)N)NC(=O)[C@@H]2CCC(=O)N2)CSSC[C@@H](C(=O)N[C@H](Cc2ccccc2)C(=O)O)NC1=O [Example 20, pE-R-P-R-L-S-Aib-K-C*-P-Nle-C*-f-OH] ([pGlu]RPRLS[Aib]KCP[Nle]C[dF]-OH; disulfide 9-12) | 6.1 | 5.52
CCCC[C@@H]1NC(=O)[C@@H]2CCCN2C(=O)CNC(=O)[C@H](CCCCN)NC(=O)[C@@H](NC(=O)[C@H](CO)NC(=O)[C@H](CC(C)C)NC(=O)[C@H](CCCNC(=N)N)NC(=O)[C@@H]2CCCN2C(=O)[C@H](CCCNC(=N)N)NC(=O)[C@@H]2CCC(=O)N2)CSSCC[C@@H](C(=O)N[C@@H](Cc2ccccc2)C(=O)O)NC1=O [Example 12, pE-R-P-R-L-S-C*-K-G-P-Nle-hC*-F-OH] ([pGlu]RPRLSCKGP[Nle][hCys]F-OH; disulfide 7-12) | 81.7 | 1.17
